Experimental data published in patent publication US20230117034A1, “PYRAZOLOTRIAZINES” (Bayer Aktiengesellschaft, priority 2019, published 2023).

Experiments:
[1] = molecular target: T1, CDK9/CycT1 (Homo sapiens, UniProt P50750); assay: CDK9/CycT1 high ATP kinase assay (TR-FRET, 2 mM ATP); type: biochemical; conditions: 2 mM ATP (high ATP); median; read-out: CDK9/CyclinT1, 2 mM ATP (high ATP), IC50 (median)
T1 construct: Recombinant full-length His-tagged human CDK9 and CycT1; purchased Life Technologies PV4131; host or cells: insect cells
Procedure, shortened: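 Full-length His-tagged human CDK9/CycT1 (insect cell, ~0.5 μg/mL) preincubated 15 min at 22 °C with compound in Tris pH 8.0, MgCl2, DTT buffer before reaction with biotinylated peptide substrate at high ATP (2 mM).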

[2] = system: BRCA1 mRNA expression in MDA-MB-231 cells; assay: qRT-PCR assay: BRCA1 mRNA expression in MDA-MB-231; type: cell-based, human; conditions: Homo sapiens, MDA-MB-231, Inhibition of BRCA1 mRNA expression in MDA-MB-231 cells; median; read-out: RTqPCR-MDA-MB-231, IC50, BRCA1 (median)
Procedure, shortened: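 Cells were seeded at 200,000 cells/well, left 24 h, then exposed continuously to test substances for 24 h. Total RNA (600 ng) was reverse-transcribed to cDNA and amplified by qPCR, and transcript levels were normalised to GAPDH housekeeping expression.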

T1 sequence (P50750 whole entry): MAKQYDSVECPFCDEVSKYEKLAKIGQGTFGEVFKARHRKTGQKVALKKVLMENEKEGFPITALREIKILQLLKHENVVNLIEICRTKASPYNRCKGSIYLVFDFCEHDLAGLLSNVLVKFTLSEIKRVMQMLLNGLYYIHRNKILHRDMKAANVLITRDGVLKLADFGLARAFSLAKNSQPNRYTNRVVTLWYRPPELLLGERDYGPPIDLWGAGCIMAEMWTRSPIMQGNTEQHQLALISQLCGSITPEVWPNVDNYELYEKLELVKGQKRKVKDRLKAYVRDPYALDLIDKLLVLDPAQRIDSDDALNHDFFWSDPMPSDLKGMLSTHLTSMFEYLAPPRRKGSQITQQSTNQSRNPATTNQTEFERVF
T1 sequence (O60563 whole entry partner): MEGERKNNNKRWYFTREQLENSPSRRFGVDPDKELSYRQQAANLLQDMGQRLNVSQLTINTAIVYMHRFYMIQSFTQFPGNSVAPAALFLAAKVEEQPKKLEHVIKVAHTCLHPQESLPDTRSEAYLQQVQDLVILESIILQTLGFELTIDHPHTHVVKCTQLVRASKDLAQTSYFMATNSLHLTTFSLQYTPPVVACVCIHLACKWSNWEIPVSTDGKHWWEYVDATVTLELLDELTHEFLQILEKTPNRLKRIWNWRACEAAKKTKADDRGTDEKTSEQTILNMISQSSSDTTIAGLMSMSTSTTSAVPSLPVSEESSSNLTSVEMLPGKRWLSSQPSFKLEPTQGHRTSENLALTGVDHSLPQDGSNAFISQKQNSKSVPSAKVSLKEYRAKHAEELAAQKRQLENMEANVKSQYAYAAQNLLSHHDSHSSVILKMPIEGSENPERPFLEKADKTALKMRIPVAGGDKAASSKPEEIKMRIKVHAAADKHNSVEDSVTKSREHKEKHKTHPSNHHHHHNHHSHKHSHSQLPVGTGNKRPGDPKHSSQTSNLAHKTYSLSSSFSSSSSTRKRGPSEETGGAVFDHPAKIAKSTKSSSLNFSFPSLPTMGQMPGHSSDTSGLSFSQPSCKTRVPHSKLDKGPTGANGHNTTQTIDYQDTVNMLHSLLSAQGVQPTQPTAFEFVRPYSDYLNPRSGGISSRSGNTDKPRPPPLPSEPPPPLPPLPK

Structure (SMILES)	IC50 [1]	IC50 [2]
CCNC1CCN(c2nc(NCc3nc4ccccc4[nH]3)n3ncc(Br)c3n2)CC1 [Example 300]	> 20000 nM	12.6 nM
Fc1cc2nc(CNc3nc(N4CCOCC4)nc4c(C5CC5)cnn34)[nH]c2cc1Cl [Example 307, N-[(6-chloro-5-fluoro-1H-benzimidazol-2-yl)methyl]-8-cyclopropyl-2-(morpholin-4-yl)pyrazolo[1,5-a][1,3,5]triazin-4-amine]	> 20000 nM	8.07 nM
Fc1cccc2[nH]c(CNc3nc(N4CCOCC4)nc4c(C(F)(F)F)cnn34)nc12 [Example 274, N-[(4-fluoro-1H-benzimidazol-2-yl)methyl]-2-(morpholin-4-yl)-8-(trifluoromethyl)pyrazolo[1,5-a][1,3,5]triazin-4-amine]	> 20000 nM	1.92 nM
CN1CCN(c2nc(NCc3nc4cc(Cl)ccc4[nH]3)n3ncc(C(F)(F)F)c3n2)CC1 [Example 298, N-[(5-chloro-1H-benzimidazol-2-yl)methyl]-2-(4-methylpiperazin-1-yl)-8-(trifluoromethyl)pyrazolo[1,5-a][1,3,5]triazin-4-amine]	> 20000 nM	4.12 nM
Brc1cnn2c(NCc3nc4ccccc4[nH]3)nc(N3C[C@@H]4C[C@H]3CN4)nc12 [Example 270, N-[(1H-benzimidazol-2-yl)methyl]-8-bromo-2-[(1S,4S)-2,5-diazabicyclo[2.2.1]heptan-2-yl]pyrazolo[1,5-a][1,3,5]triazin-4-amine]	> 20000 nM	6.41 nM
Brc1cnn2c(NCc3nc4ccccc4[nH]3)nc(N3C[C@H]4C[C@@H]3CN4)nc12 [Example 269, N-[(1H-benzimidazol-2-yl)methyl]-8-bromo-2-[(1R,4R)-2,5-diazabicyclo[2.2.1]heptan-2-yl]pyrazolo[1,5-a][1,3,5]triazin-4-amine]	> 20000 nM	8.39 nM
Fc1cccc2[nH]c(CNc3nc(N4C[C@H]5CC[C@@H](C4)N5)nc4c(C5CC5)cnn34)nc12 [Example 296, 8-cyclopropyl-2-[(1R,5S)-3,8-diazabicyclo[3.2.1]octan-3-yl]-N-[(4-fluoro-1H-benzimidazol-2-yl)methyl]pyrazolo[1,5-a][1,3,5]triazin-4-amine]	> 20000 nM	1.27 nM
Brc1cnn2c(NCc3nc4ccccc4[nH]3)nc(N3C[C@H]4CC[C@@H]3CN4)nc12 (single isomer, unassigned) [Example 316, N-[(1H-benzimidazol-2-yl)methyl]-8-bromo-2-{[1R or S-(1R*4R*)]-2,5-diazabicyclo[2.2.2]octan-2-yl}pyrazolo[1,5-a][1,3,5]triazin-4-amine]	12900 nM	12.4 nM
c1ccc2[nH]c(CNc3nc(N4C[C@@H]5CCCN[C@@H]5C4)nc4c(C5CC5)cnn34)nc2c1 [Example 249, N-[(1H-benzimidazol-2-yl)methyl]-8-cyclopropyl-2-[(4aS,7aS)-octahydro-6H-pyrrolo[3,4-b]pyridin-6-yl]pyrazolo[1,5-a][1,3,5]triazin-4-amine]	> 20000 nM	5.69 nM
CN1CCN(c2nc(NCc3nc4ccccc4[nH]3)n3ncc(C(F)(F)F)c3n2)CC1 [Example 297, N-[(1H-benzimidazol-2-yl)methyl]-2-(4-methylpiperazin-1-yl)-8-(trifluoromethyl)pyrazolo[1,5-a][1,3,5]triazin-4-amine]	> 20000 nM	51.5 nM
CN(CC1CC1)c1nc(NCc2nc3ccccc3[nH]2)n2ncc(Br)c2n1 [Example 287, N^4-[(1H-benzimidazol-2-yl)methyl]-8-bromo-N^2-(cyclopropylmethyl)-N^2-methylpyrazolo[1,5-a][1,3,5]triazine-2,4-diamine]	> 20000 nM	20.8 nM
CNC1CCN(c2nc(NCc3nc4ccccc4[nH]3)n3ncc(Br)c3n2)CC1 [Example 272, N-[(1H-benzimidazol-2-yl)methyl]-8-bromo-2-[4-(methylamino)piperidin-1-yl]pyrazolo[1,5-a][1,3,5]triazin-4-amine]	> 20000 nM	7.91 nM
Brc1cnn2c(NCc3nnc(-c4ccccc4)[nH]3)nc(N3CCOCC3)nc12 [Example 24, 8-bromo-2-(morpholin-4-yl)-N-[(5-phenyl-4H-1,2,4-triazol-3-yl)methyl]pyrazolo[1,5-a][1,3,5]triazin-4-amine]	3060 nM	10 nM
Fc1ccc2[nH]c(CNc3nc(N4CCOCC4)nc4c(C5CC5(F)F)cnn34)nc2c1 (racemic) [Example 286, 8-[(1RS)-2,2-difluorocyclopropyl]-N-[(5-fluoro-1H-benzimidazol-2-yl)methyl]-2-(morpholin-4-yl)pyrazolo[1,5-a][1,3,5]triazin-4-amine]	> 20000 nM	10.6 nM
COc1ccc2[nH]c(CNc3nc(N4CCOCC4)nc4c(C(F)(F)F)cnn34)nc2c1 [Example 257, N-[(5-methoxy-1H-benzimidazol-2-yl)methyl]-2-(morpholin-4-yl)-8-(trifluoromethyl)pyrazolo[1,5-a][1,3,5]triazin-4-amine]	> 20000 nM	6.97 nM
Fc1ccc2[nH]c(CNc3nc(N4CCOCC4)nc4c(CC(F)(F)F)cnn34)nc2c1 [Example 308, N-[(5-fluoro-1H-benzimidazol-2-yl)methyl]-2-(morpholin-4-yl)-8-(2,2,2-trifluoroethyl)pyrazolo[1,5-a][1,3,5]triazin-4-amine]	> 20000 nM	5.46 nM
c1ccc2[nH]c(CNc3nc(N4CCNCC4)nc4c(C5CC5)cnn34)nc2c1 [Example 247, N-[(1H-benzimidazol-2-yl)methyl]-8-cyclopropyl-2-(piperazin-1-yl)pyrazolo[1,5-a][1,3,5]triazin-4-amine]	> 20000 nM	5.55 nM
Brc1cnn2c(NCc3nc4ccccc4[nH]3)nc(N3CC4CCNC4C3)nc12 (centres unmarked) [Example 271, 2-(2,3,3a,4,6,6a-hexahydro-1H-pyrrolo[2,3-c]pyrrol-5-yl)-N-(1H-benzimidazol-2-ylmethyl)-8-bromo-pyrazolo[1,5-a][1,3,5]triazin-4-amine]	> 20000 nM	13.9 nM
FC(F)(F)Cc1cnn2c(NCc3nc4cc(Cl)ccc4[nH]3)nc(N3CCOCC3)nc12 [Example 299, N-[(5-chloro-1H-benzimidazol-2-yl)methyl]-2-(morpholin-4-yl)-8-(2,2,2-trifluoroethyl)pyrazolo[1,5-a][1,3,5]triazin-4-amine]	> 20000 nM	8.86 nM
CN(CC(C)(C)O)c1nc(NCc2nc3cc(Cl)c(Cl)cc3[nH]2)n2ncc(C3CC3)c2n1 [Example 306, 1-[(8-cyclopropyl-4-{[(5,6-dichloro-1H-benzimidazol-2-yl)methyl]amino}pyrazolo[1,5-a][1,3,5]triazin-2-yl)(methyl)amino]-2-methylpropan-2-ol]	> 20000 nM	6.94 nM
Brc1cnn2c(NCc3nc4ccncc4[nH]3)nc(N3CCOCC3)nc12 [Example 22, 8-bromo-N-[(3H-imidazo[4,5-c]pyridin-2-yl)methyl]-2-(morpholin-4-yl)pyrazolo[1,5-a][1,3,5]triazin-4-amine]	> 18400 nM	131 nM
N[C@H]1CN(c2nc(NCc3nc4ccccc4[nH]3)n3ncc(Br)c3n2)CC12CC2 [Example 259, 2-[(7R)-7-amino-5-azaspiro[2.4]heptan-5-yl]-N-[(1H-benzimidazol-2-yl)methyl]-8-bromopyrazolo[1,5-a][1,3,5]triazin-4-amine]	7370 nM	11.4 nM
Fc1ccc2[nH]c(CNc3nc(N4CCOCC4)nc4c(CC(F)(F)F)cnn34)nc2c1F [Example 268, N-[(4,5-difluoro-1H-benzimidazol-2-yl)methyl]-2-(morpholin-4-yl)-8-(2,2,2-trifluoroethyl)pyrazolo[1,5-a][1,3,5]triazin-4-amine]	> 20000 nM	3.23 nM
c1ccc2[nH]c(CNc3nc(N4CCOCC4)nc4c(C5CCC5)cnn34)nc2c1 [Example 263, N-[(1H-benzimidazol-2-yl)methyl]-8-cyclobutyl-2-(morpholin-4-yl)pyrazolo[1,5-a][1,3,5]triazin-4-amine]	> 20000 nM	28.8 nM
NC12CC1CN(c1nc(NCc3nc4ccccc4[nH]3)n3ncc(Br)c3n1)C2 (centres unmarked) [Example 258, 2-(1-amino-3-azabicyclo[3.1.0]hexan-3-yl)-N-(1H-benzimidazol-2-ylmethyl)-8-bromo-pyrazolo[1,5-a][1,3,5]triazin-4-amine]	> 20000 nM	12.1 nM
Brc1cnn2c(NCc3nc4ccccc4[nH]3)nc(N3C[C@H]4CNC[C@H]4C3)nc12 [Example 283, N-[(1H-benzimidazol-2-yl)methyl]-8-bromo-2-[(3aR,6aS)-hexahydropyrrolo[3,4-c]pyrrol-2(1H)-yl]pyrazolo[1,5-a][1,3,5]triazin-4-amine]	> 20000 nM	9.13 nM
Brc1cnn2c(NCc3nc4ccccc4[nH]3)nc(NCC3CC3)nc12 [Example 284, N^4-[(1H-benzimidazol-2-yl)methyl]-8-bromo-N^2-(cyclopropylmethyl)pyrazolo[1,5-a][1,3,5]triazine-2,4-diamine]	> 20000 nM	24.2 nM
CN[C@@H]1CCN(c2nc(NCc3nc4ccccc4[nH]3)n3ncc(Br)c3n2)C1 [Example 253, N-[(1H-benzimidazol-2-yl)methyl]-8-bromo-2-[(3R)-3-(methylamino)pyrrolidin-1-yl]pyrazolo[1,5-a][1,3,5]triazin-4-amine]	> 20000 nM	20.8 nM
